Consider three compounds from US6787532B2, “Formulation containing anti-inflammatory androstane derivatives” (SmithKline Beecham Corporation, priority 2000, dated 2004).

The nature of data set [1]: Solubility in water with surfactants and co-solvating agents. Type of data set: physicochemical. An excerpt:
As noted above, this improved process permits solutions of higher concentration to be prepared than is possible by conventional techniques.

For another data set, the system named is lung eosinophilia. Kind of data set: Ovalbumin sensitised Brown Norway rat eosinophilia model. Type of data set: in vivo. The settings on record: single intra-tracheal dose of 30 μg, suspension in saline, 30 min prior to ovalbumin challenge. As to the method: Pharmacological activity in vivo was assessed in an-ovalbumin sensitised Brown Norway rat eosinophilia model. This model is designed to mimic allergen induced lung eosinophilia, a major component of lung inflammation in asthma.

A further data set concerns thymus involution. Kind of data set: Rat model of thymus involution. Type of data set: in vivo. The settings on record: 3 daily IT doses of 100 μg.
Data set [2] in a line: Pharmacokinetics after intravenous and oral dosing in rats. The data set is classed as in vivo. The settings on record: male, Wistar Han, plasma, rat; for clearance: IV 0.1 mg/kg.
Data set [3] in a line: Pharmacokinetics after intra-tracheal dry powder dosing in the pig. The data set is classed as in vivo. To be noted: for time after dosing up to which quantifiable in plasma / Cmax / AUC(0-inf): pig; for time after dosing up to which quantifiable in plasma: intra-tracheal 1 mg, LLOQ 10 and 20 pg/mL; for Cmax / AUC(0-inf): plasma, 1 mg; for Cmax: inhaled or intranasal; for AUC(0-inf): iv, compound (I) calculated with IV half-life. As to the method:
Serial blood samples were taken for up to 8 h following dosing.

Data set [4] in a line: Pharmacokinetics after intravenous administration in the anaesthetised pig. The settings on record: intravenous mixture of the two compounds at 0.1 mg/kg. Type of data set: in vivo. An excerpt: The clearance of these two glucocorticoids is similar is this experimental pig model.
The target of data set [5] is T1, glucocorticoid receptor (GR) (Homo sapiens, UniProt P04150). Kind of data set: Transactivation (GR): A549 cells with renilla luciferase reporter under glucocorticoid response elements. Type of data set: cell-based. To be noted: renilla luciferase GRE reporter, read-out: Transactivation (GR) ED50. An excerpt:
(§1) The glucocorticoid receptor (GR) can function in at least two distinct mechanisms, by upregulating gene expression through the direct binding of GR to specific sequences in gene promotors, and by downregulating gene expression that is being driven by other transcription factors (such as NFκB or AP-1) through their direct interaction with GR.
(§2) The first cell line contains the firefly luciferase reporter gene under the control of a synthetic promoter that specifically responds to activation of the transcription factor NFκB when stimulated with TNFα. The second cell line contains the renilla luciferase reporter gene under the control of a synthetic promotor that comprises 3 copies of the consensus glucocorticoid response element, and which responds to direct stimulation by glucocorticoids. Simultaneous measurement of transactivation and transrepression was conducted by mixing the two cell lines in a 1:1 ratio in 96 well plate (40,000 cells per well) and growing overnight at 37° C. Test compounds were dissolved in DMSO, and added to the cells at a final DMSO concentration of 0.7%. After incubation for 1 h 0.5 ng/ml TNFα (R&D Systems) was added and after a further 15 hours at 37° C., the levels of firefly and renilla luciferase were measured using the Packard Firelite kit following the manufacturers' directions. Dose response curves were constructed from which EC50 values were determined.
For orientation: In a reporter assay the amount or activity of a reporter protein is the signal.

In data set [6] the target is T1, glucocorticoid receptor (GR). Kind of data set: Transrepression (NFκB): A549 cells with firefly luciferase NFκB reporter, TNFα stimulated. The settings on record: 0.5 ng/ml TNFα, read-out: Transrepression (NFκB) ED50. The data set is classed as cell-based.
Excerpt: as §1, §2

Another data set addresses T2, glucocorticoid receptor (Homo sapiens, UniProt P04150).
T2 sequence (P04150 1-777): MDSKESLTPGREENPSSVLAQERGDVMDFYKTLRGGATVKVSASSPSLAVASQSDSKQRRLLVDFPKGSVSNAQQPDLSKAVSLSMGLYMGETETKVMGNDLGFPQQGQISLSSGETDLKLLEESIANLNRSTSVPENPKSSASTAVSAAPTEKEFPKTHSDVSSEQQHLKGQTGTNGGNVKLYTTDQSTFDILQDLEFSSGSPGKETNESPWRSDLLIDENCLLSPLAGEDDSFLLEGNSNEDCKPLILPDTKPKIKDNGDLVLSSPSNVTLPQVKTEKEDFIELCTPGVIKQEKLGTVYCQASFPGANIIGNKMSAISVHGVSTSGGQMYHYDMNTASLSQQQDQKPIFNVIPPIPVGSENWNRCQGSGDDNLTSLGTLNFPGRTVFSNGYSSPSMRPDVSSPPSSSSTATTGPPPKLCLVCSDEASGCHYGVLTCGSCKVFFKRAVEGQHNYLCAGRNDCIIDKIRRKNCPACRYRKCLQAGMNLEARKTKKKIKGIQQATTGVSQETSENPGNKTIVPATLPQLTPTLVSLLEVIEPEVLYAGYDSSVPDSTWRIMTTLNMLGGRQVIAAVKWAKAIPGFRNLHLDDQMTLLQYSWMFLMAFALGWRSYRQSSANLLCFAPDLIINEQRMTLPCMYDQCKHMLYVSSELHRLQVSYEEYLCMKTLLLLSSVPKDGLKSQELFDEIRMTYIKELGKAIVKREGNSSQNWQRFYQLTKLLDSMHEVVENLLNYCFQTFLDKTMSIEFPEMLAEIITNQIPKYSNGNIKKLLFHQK
Kind of data set: In vitro functional glucocorticoid assays, metabolite versus parent. Type of data set: cell-based. As to the method:
Compound (I) wherein R represents furan-2-yl undergoes highly efficient hepatic metabolism to yield the 17-β carboxylic acid (X) as the sole major metabolite in rat and human in vitro systems. […] Pharmacological activity was assessed in a functional in vitro assay of glucocorticoid agonist activity which is generally predictive of anti-inflammatory or anti-allergic activity in vivo.

Where [7] appears, read: 5% Tyloxapol, aqueous with cosolvent or surfactant or cyclodextrin, 5% Tyloxapol, process performed at 60-70° C., read-out: solubility.
Setting [8] is: 5% Tyloxapol, aqueous with cosolvent or surfactant or cyclodextrin, 5% Tyloxapol, process performed at room temperature, read-out: solubility.
The mark [9] stands for this setting: water, aqueous with cosolvent or surfactant or cyclodextrin, in water, Triton X-100 2% w/w, read-out: Solubility.
Setting [10] is: water, aqueous with cosolvent or surfactant or cyclodextrin, in water, Tyloxapol 2% w/w, read-out: Solubility.
Setting [11] is: water, aqueous with cosolvent or surfactant or cyclodextrin, in water, Tyloxapol 5% w/w and PEG200 10% w/w, read-out: Solubility.
[12] abbreviates: water, aqueous with cosolvent or surfactant or cyclodextrin, in water, Tyloxapol 5% w/w, read-out: Solubility.
The mark [13] stands for this setting: water, in water, no surfactant, read-out: Solubility.
The mark [14] stands for this setting: Pig 1, intra-tracheal dry powder 1 mg.
The mark [15] stands for this setting: Pig 2, intra-tracheal dry powder 1 mg.

Converted amounts (≈) assume the structure as drawn. “Also recorded” adds a separate entry of the source. Where two headings read alike, the source gives them in different places. A value given as a limit tells only on which side of the number the result lay.

As usually defined, the solubility is how much of the substance goes into solution per volume. As usually defined, the bioavailability is dose-corrected exposure relative to a reference, in per cent. Lower therefore signals poor availability. What is called Cmax is the peak of the concentration-time curve. As a reminder, the AUC(0-inf) is total exposure, with the tail of the curve extrapolated. For the compound `C[C@@H]1C[C@H]2[C@@H]3C[C@H](F)C4=CC(=O)C=C[C@]4(C)[C@@]3(F)[C@@H](O)C[C@]2(C)[C@@]1(OC(=O)c1ccco1)C(=O)SCF` [Compound of Formula (I), 6α, 9α-difluoro-17α-[(2-furanylcarbonyl)oxy]-11β-hydroxy-16α-methyl-3-oxo-androsta-1,4-diene-17β-carbothioic acid S-fluoromethyl ester], the solubility in data set [1] (setting [7]) stood at 344 µg/mL; in data set [1] (setting [8]), 233 µg/mL; in data set [1] (water, aqueous with cosolvent or surfactant or cyclodextrin, in water, Triton X-100 0.5% w/w, read-out: Solubility), 18 µg/mL; in data set [1] (setting [9]), 266 µg/mL; in data set [1] (water, aqueous with cosolvent or surfactant or cyclodextrin, in water, Triton X-100 5% w/w and PEG200 10% w/w, read-out: Solubility), 840 µg/mL; in data set [1] (water, aqueous with cosolvent or surfactant or cyclodextrin, in water, Triton X-100 5% w/w, read-out: Solubility), 549 µg/mL. For the same compound, the solubility in [1] (water, aqueous with cosolvent or surfactant or cyclodextrin, in water, Triton X-305 5% w/w, read-out: Solubility) came out at 204 µg/mL; in data set [1] (setting [10]), 95 µg/mL; in data set [1] (water, aqueous with cosolvent or surfactant or cyclodextrin, in water, Tyloxapol 5% w/w and Dextrose 4% w/w, read-out: Solubility), 526 µg/mL; in data set [1] (setting [11]) it was 836 µg/mL; in data set [1] (water, aqueous with cosolvent or surfactant or cyclodextrin, in water, Tyloxapol 5% w/w and Propylene glycol 10% w/w, read-out: Solubility), 422 µg/mL; in [1] (water, aqueous with cosolvent or surfactant or cyclodextrin, in water, Tyloxapol 5% w/w, no co-solvating agent, read-out: Solubility) it was 344 µg/mL. The solubility was 307 µg/mL in data set [1] (setting [12]); 346 µg/mL in [1] (water, aqueous with cosolvent or surfactant or cyclodextrin, in water, Tyloxapol 6% w/w, read-out: Solubility); 576 µg/mL in [1] (water, aqueous with cosolvent or surfactant or cyclodextrin, in water, Tyloxapol 7.5% w/w, read-out: Solubility); 585 µg/mL in [1] (water, aqueous with cosolvent or surfactant or cyclodextrin, in water, Tyloxapol 10% w/w, read-out: Solubility); less than 1 µg/mL in [1] (setting [13]). Besides, the “inhibition of lung eosinophilia” value in the data set with lung eosinophilia is 69%. Moreover, the “reduction of thymus weight” value in the data set with thymus involution is 67%. The compound also came in with a clearance in data set [2] of 47.3 mL/min/kg. Further, the bioavailability in data set [2] (oral, 0.1 mg/kg, oral 0.1 mg/kg and IV 0.1 mg/kg) turned out to be 0.9%. In data set [3] (anaesthetised pigs, dry powder delivery to the lungs), the “systemic exposure compared to fluticasone propionate” value was “markedly reduced systemic exposure; also recorded: significantly lower exposure”. Also, the “time after dosing up to which quantifiable in plasma” value in data set [3] is “up to 2 hours”. Further, the Cmax was determined as 0.117 ng/mL in data set [3] (setting [14]) and 0.081 ng/mL in [3] (setting [15]). The AUC(0-inf) in data set [3] (setting [14]) was 0.254 ng·h/mL; in [3] (setting [15]) it was 0.221 ng·h/mL. In addition, the “pharmacokinetic parameters, compound (I) versus fluticasone propionate” value in [4] is given as “the same”.

For the compound `CCC(=O)O[C@]1(C(=O)SCF)[C@H](C)C[C@H]2[C@@H]3C[C@H](F)C4=CC(=O)C=C[C@]4(C)[C@@]3(F)[C@@H](O)C[C@@]21C` [Fluticasone propionate, 6α, 9α-Difluoro-17α-(1-oxopropoxy)-11β-hydroxy-16α-methyl-3-oxo-androsta-1,4-diene-17-0-carbothioic acid S-fluoromethyl ester, reference compound], the solubility was 133 µg/mL (≈ 266 µM) in data set [1] (setting [7]); 87 µg/mL (≈ 174 µM) in data set [1] (setting [8]); “None detected” in data set [1] (in water, Labrasol 10% w/w); “None detected” in data set [1] (in water, Triton X-45 5% w/w); 5.9 µg/mL (≈ 11.8 µM) in data set [1] (water, aqueous with cosolvent or surfactant or cyclodextrin, in water, Sodium chenodesoxycholate 5% w/w, read-out: Solubility); 11 µg/mL (≈ 22 µM) in [1] (water, aqueous with cosolvent or surfactant or cyclodextrin, in water, Sodium cholate 2% w/w, read-out: Solubility). Further, the solubility in data set [1] (water, aqueous with cosolvent or surfactant or cyclodextrin, in water, Sodium cholate 20% w/w, read-out: Solubility) came out at 140 µg/mL (≈ 280 µM); in data set [1] (setting [9]), 69 µg/mL (≈ 138 µM); in [1] (setting [10]), 41 µg/mL (≈ 81.9 µM); in data set [1] (setting [11]), 207 µg/mL (≈ 414 µM); in data set [1] (water, aqueous with cosolvent or surfactant or cyclodextrin, in water, Tyloxapol 5% w/w and Phospatidyl choline 1% w/w, read-out: Solubility), 197 µg/mL (≈ 394 µM); in data set [1] (setting [12]), 133 µg/mL (≈ 266 µM). In addition, the solubility in [1] (setting [13]) was less than 1 µg/mL. Besides, in the data set with thymus involution, the “reduction of thymus weight” value worked out at 78%. Moreover, the clearance in data set [2] turned out to be 45.2 mL/min/kg. For the same compound, the “time after dosing up to which quantifiable in plasma” value in [3] is “up to 8 hours”. The Cmax worked out at 0.277 ng/mL in data set [3] (setting [14]) and 0.218 ng/mL in [3] (setting [15]). The AUC(0-inf) in data set [3] (setting [14]) was 0.455 ng·h/mL; in data set [3] (setting [15]), 0.495 ng·h/mL. Further, in data set [4], the “pharmacokinetic parameters, compound (I) versus fluticasone propionate” value is on record as “the same”.

`C[C@@H]1CC2C3C[C@H](F)C4=CC(=O)C=C[C@]4(C)[C@@]3(F)[C@@H](O)C[C@]2(C)[C@@]1(OC(=O)c1ccco1)C(=O)O` (stereo partly shown) [Metabolite (X)]: the values for the EC50 in [5] and in [6] were less than 250 nM and more than 1000 nM, respectively. On glucocorticoid receptor, the “fold less active than the parent compound” value is more than 1000 fold.
